Results published in US20250205259A1, “CLASS OF 7-((FIVE-MEMBERED HETEROCYCLIC)METHYL)-8-CARBOXYLIC ACID-BENZO CYCLIC BORATE DERIVATIVES AND USES THEREOF” (priority 2022, published 2025).
Read-outs that look alike come from different tables or passages of the source.

Tests used:
Type in all cases: biochemical
VIM-1 = VIM-1 (Pseudomonas aeruginosa, UniProt A0A0F7KYQ8); experiment: Inhibitory activity on MBL, fluorescent substrate FC-5
VIM-2 = VIM-2 (Escherichia coli, UniProt Q5U7L7); experiment: as above; settings: read-out: Inhibitory activity on MBL VIM-2 (IC50 class)
CTX-M-14 = CTX-M-14 (Escherichia coli, UniProt Q9L5C7); experiment: Inhibitory activity on SBL, fluorescent substrate FC-5; settings: read-out: Inhibitory activity on SBL CTX-M-14 (IC50 class)
NDM-5 = NDM-5 (Klebsiella pneumoniae, UniProt C7C422, M154L/V88L); experiment: Inhibitory activity on MBL, fluorescent substrate FC-5
IMP-1 = IMP-1 (Serratia marcescens, UniProt P52699); experiment: as above
NDM-1 = NDM-1 (Klebsiella pneumoniae, UniProt C7C422); experiment: as above
SHV-12 = molecular target: T1, SHV-12 (UniProt P0AD64, L31Q/G234S/E235K, species not given); experiment: Inhibitory activity on SBL, fluorescent substrate FC-5; settings: read-out: Inhibitory activity on SBL SHV-12 (IC50 class)
T1 sequence (P0AD64 1-286 L31Q/G234S/E235K): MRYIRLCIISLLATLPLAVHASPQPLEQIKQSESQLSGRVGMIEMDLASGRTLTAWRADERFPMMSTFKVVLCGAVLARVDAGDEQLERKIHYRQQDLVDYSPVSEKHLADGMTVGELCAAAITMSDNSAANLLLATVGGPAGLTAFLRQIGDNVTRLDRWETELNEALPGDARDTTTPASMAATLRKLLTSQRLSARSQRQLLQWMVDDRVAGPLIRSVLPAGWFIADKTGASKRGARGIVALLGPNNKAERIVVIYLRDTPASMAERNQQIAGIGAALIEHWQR

KPC-2 = KPC-2 (Klebsiella pneumoniae, UniProt Q9F663); experiment: as above; settings: read-out: Inhibitory activity on SBL KPC-2 (IC50 class)
OXA-48 = OXA-48 (Klebsiella pneumoniae, UniProt Q6XEC0); experiment: as above; settings: read-out: Inhibitory activity on SBL OXA-48 (IC50 class)
TEM-1 = TEM-1 (Escherichia coli, UniProt P62593); experiment: as above; settings: read-out: Inhibitory activity on SBL TEM-1 (IC50 class)
[1] = read-out: Inhibitory activity on MBL VIM-1 (IC50 class)
[2] = read-out: Inhibitory activity on MBL NDM-5 (IC50 class)
[3] = read-out: Inhibitory activity on MBL IMP-1 (IC50 class)
[4] = read-out: Inhibitory activity on MBL NDM-1 (IC50 class)
[5] = VIM-1 and/or VIM-2, read-out: inhibitory activity at a nanomolar-level on VIM-1 and/or VIM-2
[6] = read-out: inhibitory activity at a nanomolar-level on NDM-5
[7] = read-out: inhibitory activity at a nanomolar-level on NDM-1

Measured: IC50

Chain of KPC-2 (Q9F663 25-293 limits assumed): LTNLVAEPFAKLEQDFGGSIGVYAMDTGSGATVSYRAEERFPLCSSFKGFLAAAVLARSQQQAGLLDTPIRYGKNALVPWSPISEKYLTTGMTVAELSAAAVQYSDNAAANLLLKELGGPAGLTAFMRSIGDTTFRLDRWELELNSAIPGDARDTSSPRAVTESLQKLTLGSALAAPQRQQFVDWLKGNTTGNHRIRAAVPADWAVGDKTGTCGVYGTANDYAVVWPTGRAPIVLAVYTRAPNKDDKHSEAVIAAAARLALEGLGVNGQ
Chain of NDM-1 (C7C422 29-270 limits assumed): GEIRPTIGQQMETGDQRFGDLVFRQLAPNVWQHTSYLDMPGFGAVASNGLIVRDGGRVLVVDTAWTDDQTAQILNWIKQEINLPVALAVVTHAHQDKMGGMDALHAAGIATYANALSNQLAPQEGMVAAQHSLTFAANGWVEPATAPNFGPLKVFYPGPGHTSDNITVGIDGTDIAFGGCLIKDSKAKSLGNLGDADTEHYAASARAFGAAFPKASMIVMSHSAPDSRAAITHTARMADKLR
Chain of CTX-M-14 (Q9L5C7 entry or part of it): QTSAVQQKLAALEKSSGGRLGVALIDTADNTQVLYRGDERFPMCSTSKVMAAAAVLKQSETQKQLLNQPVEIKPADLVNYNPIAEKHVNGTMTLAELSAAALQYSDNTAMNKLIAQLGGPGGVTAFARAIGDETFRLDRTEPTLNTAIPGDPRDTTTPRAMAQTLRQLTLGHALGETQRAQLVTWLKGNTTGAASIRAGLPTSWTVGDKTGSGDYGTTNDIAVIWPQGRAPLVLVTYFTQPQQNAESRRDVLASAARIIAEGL
Chain of TEM-1 (P62593 24-286 limits assumed): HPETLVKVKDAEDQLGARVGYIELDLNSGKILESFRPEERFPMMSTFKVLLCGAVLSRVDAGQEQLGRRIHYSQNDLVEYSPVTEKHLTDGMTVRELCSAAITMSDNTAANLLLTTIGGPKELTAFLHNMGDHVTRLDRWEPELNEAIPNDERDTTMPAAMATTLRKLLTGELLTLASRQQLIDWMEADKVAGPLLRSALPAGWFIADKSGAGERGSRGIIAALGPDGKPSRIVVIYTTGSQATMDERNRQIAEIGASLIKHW
Chain of OXA-48 (Q6XEC0 23-265 limits assumed): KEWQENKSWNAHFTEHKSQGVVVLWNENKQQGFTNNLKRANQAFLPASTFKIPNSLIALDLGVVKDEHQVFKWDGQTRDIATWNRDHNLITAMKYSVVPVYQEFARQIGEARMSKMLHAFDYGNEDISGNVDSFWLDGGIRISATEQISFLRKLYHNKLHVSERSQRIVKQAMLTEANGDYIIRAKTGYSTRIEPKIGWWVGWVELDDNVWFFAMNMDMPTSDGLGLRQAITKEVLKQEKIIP
Chain of IMP-1 (P52699 19-246 limits assumed): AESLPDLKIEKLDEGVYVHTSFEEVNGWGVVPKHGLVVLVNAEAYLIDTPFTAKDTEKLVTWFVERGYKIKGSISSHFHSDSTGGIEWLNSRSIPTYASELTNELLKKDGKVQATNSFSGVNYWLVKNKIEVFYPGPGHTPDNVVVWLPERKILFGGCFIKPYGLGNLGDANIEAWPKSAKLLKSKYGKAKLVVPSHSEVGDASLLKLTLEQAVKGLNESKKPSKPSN
Chain of NDM-5 (C7C422 29-270 V88L/M154L): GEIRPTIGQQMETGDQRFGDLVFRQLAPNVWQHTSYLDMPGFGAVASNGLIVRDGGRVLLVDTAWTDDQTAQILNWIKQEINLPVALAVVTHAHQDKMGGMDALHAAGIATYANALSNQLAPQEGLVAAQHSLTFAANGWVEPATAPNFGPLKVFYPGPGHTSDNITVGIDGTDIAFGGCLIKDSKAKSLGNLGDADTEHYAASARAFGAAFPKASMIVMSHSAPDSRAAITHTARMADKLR

NC(=O)[C@@H]1CC[C@@H]2CN1C(=O)N2OS(=O)(=O)O [Avibactam, reference compound]
< 0.01 µM: CTX-M-14 | SHV-12
> 100 µM: VIM-1; [1] | VIM-2 | NDM-5; [2] | IMP-1; [3] | NDM-1; [4]

O=C(O)c1c(Cn2nccn2)ccc2c1OB(O)CC2 [Compound 1]
< 0.01 µM: KPC-2 | OXA-48
< 1 µM: VIM-1; [5] | NDM-5; [6] | NDM-1; [7]
1 to 100 µM: VIM-1; [1] | IMP-1; [3]
0.01 to 1 µM: VIM-2 | CTX-M-14 | NDM-5; [2] | NDM-1; [4] | TEM-1 | SHV-12

O=C(O)c1c(Cn2ccnn2)ccc2c1OB(O)CC2 [Compound 2]
< 0.01 µM: KPC-2
1 to 100 µM: VIM-1; [1] | IMP-1; [3]
0.01 to 1 µM: OXA-48 | VIM-2 | CTX-M-14 | NDM-5; [2] | NDM-1; [4] | TEM-1 | SHV-12
< 1 µM: VIM-1; [5] | NDM-5; [6] | NDM-1; [7]

C[n+]1ccn(Cc2ccc3c(c2C(=O)O)OB(O)CC3)n1 [Compound 3]
1 to 100 µM: VIM-1; [1] | IMP-1; [3]
0.01 to 1 µM: OXA-48 | VIM-2 | CTX-M-14 | NDM-5; [2] | NDM-1; [4] | TEM-1 | SHV-12
< 1 µM: VIM-1; [5] | NDM-5; [6] | NDM-1; [7]
< 0.01 µM: KPC-2

CCCc1cn(Cc2ccc3c(c2C(=O)O)OB(O)CC3)nn1 [Compound 4]
0.01 to 1 µM: OXA-48 | CTX-M-14 | NDM-5; [2] | IMP-1; [3] | NDM-1; [4] | TEM-1 | SHV-12
1 to 100 µM: VIM-1; [1] | VIM-2
< 1 µM: NDM-5; [6] | IMP-1; IMP-1 and/or IMP-4, read-out: inhibitory activity at a nanomolar-level on IMP-1 and/or IMP-4 | NDM-1; [7]
< 0.01 µM: KPC-2

O=C(O)c1c(Cn2cc(C3CNC3)nn2)ccc2c1OB(O)CC2 [Compound 47]
0.01 to 1 µM: KPC-2 | OXA-48 | CTX-M-14 | NDM-1; [4] | TEM-1
1 to 100 µM: VIM-1; [1] | VIM-2 | NDM-5; [2] | IMP-1; [3]
< 1 µM: NDM-5; [6] | NDM-1; [7]

O=C(O)c1c(Cn2cc3c(n2)CNC3)ccc2c1OB(O)C=C2 [Compound 52]
1 to 100 µM: KPC-2 | VIM-1; [1] | OXA-48 | VIM-2 | CTX-M-14 | NDM-5; [2] | IMP-1; [3] | NDM-1; [4] | TEM-1

O=C(O)c1c(Cn2cc3c(n2)CNC3)ccc2c1OB(O)CC2 [Compound 56]
1 to 100 µM: IMP-1; [3]
< 1 µM: VIM-1; [5] | NDM-5; [6] | NDM-1; [7]
0.01 to 1 µM: VIM-1; [1] | VIM-2 | CTX-M-14 | NDM-5; [2] | NDM-1; [4]
< 0.01 µM: KPC-2 | OXA-48 | TEM-1
